Paper PMC4981864, “Novel pH-Sensitive Cyclic Peptides” (Scientific Reports, 2016)

Assay: Dual quenching assay (acrylamide / 10-DN)
Type: physicochemical
Conditions: 7 μM peptide, 2.1 mM POPC
Text: To establish localization of the peptides within a lipid bilayer of membrane, dual quenching assay[28] was employed (Fig. 3 and Table S3). Effective quenching of fluorescence by acrylamide would occur only for tryptophan residues exposed to polar parts of the outer or inner leaflets of the bilayer. At the same time, tryptophan residues located in the middle of a membrane would be effectively quenched by 10-DN. The result of the dual quenching assay allows establishing if tryptophan residues were located in the middle of a membrane or close to the polar headgroups of the bilayer. […] Therefore, we also performed Förster resonance energy transfer (FRET) assay[29] (Fig. 4). First, symmetrically-labelled by NBD dye, POPC liposomes were prepared. Then, membrane-impermeable dithionite was used to chemically modify exposed NBD, which led to the quenching of NBD fluorescence. Thus, NBD dyes located at the outer leaflet of the bilayer were deactivated and excess of dithionite was removed by gel filtration. As a result, asymmetrically-labelled liposomes with active NBD at the inner leaflet were obtained. FRET was monitored from tryptophan residues of the peptides to NBD. Energy transfer might occur only when both fluorophores are in proximity to each other (within 5–15 Å). Thus, when tryptophan residues located at the outer leaflet of the bilayer no significant energy transfer to NBD at the inner leaflet would occur (the distance is about 50–60 Å). […] All other peptides were located at the outer leaflet of the bilayer at pH 8. Drop of pH promoted partitioning of all cyclic peptides into bilayer, which highest FRET for the c[E4W5C] at pH 3.
POPC liposomes without and with 10% of the lipids replaced by 10-doxylnonadecane (10-DN) (Avanti Polar Lipids) were prepared in 10 mM citrate-phosphate buffer pH 8.0. Peptides and POPC liposomes were mixed to generate final concentrations of 7 μM peptide and 2.1 mM POPC without and with 10-DN. […] Quencher, acrylamide (Sigma-Aldrich), was added to the samples of POPC liposomes containing no 10-DN, to have final concentration of 235 mM acrylamide. Concentration of peptides in all samples was kept constant. To observe quenching of tryptophan fluorescence by 10-DN or acrylamide, the tryptophan fluorescence was recorded as described above. The appropriate POPC blanks were measured and subtracted from the measured spectra before analysis. The percentage of quenching was calculated.

O=C(O)CC[C@@H]1NC(=O)[C@H](CS)NC(=O)[C@H](Cc2c[nH]c3ccccc23)NC(=O)[C@H](Cc2c[nH]c3ccccc23)NC(=O)[C@H](Cc2c[nH]c3ccccc23)NC(=O)[C@H](Cc2c[nH]c3ccccc23)NC(=O)[C@H](Cc2c[nH]c3ccccc23)NC(=O)[C@H](CCC(=O)O)NC(=O)[C@H](CCC(=O)O)NC(=O)[C@H](CCC(=O)O)NC1=O [c[E4W5C]]
percentage of fluorescence quenching, Pep-PC+AC pH3 (235 mM acrylamide, pH 3): 54% | percentage of fluorescence quenching, Pep-PC+AC pH8 (235 mM acrylamide, pH 8): 61% | percentage of fluorescence quenching, Pep-PC+10-DN pH3 (10% of lipids replaced by 10-DN, pH 3): 52% | percentage of fluorescence quenching, Pep-PC+10-DN pH8 (10% of lipids replaced by 10-DN, pH 8): 49%
